Several values for one entry are separate records, joined by “and”; a condition that tells them apart may be missing. Identical values can stand only once. In the oligonucleotide strings, read from the 5' end, every base follows the letter of its sugar. An asterisk marks phosphorothioate; unmarked linkages are phosphodiester. Other units and linkages are bracketed, terminal groups are in braces. A string of capitals states the bases alone. d = 2'-deoxy (DNA)
Key:
[1] = tested on: pancreatic cancer; experiment: Clinical study of overall survival, pancreatic cancer patients treated with irinotecan, by TGF-β2 expression (Example 5, two cohorts); assay type: in vivo, human; details: for Improvement in overall survival (OS) with reduced TGF-β2 expression in patients treated with the agent: pancreatic cancer patients selected by treatment; for Synergy in combination with reduced TGF-β2 expression: overall survival, pancreatic cancer patients; for Median Months Overall (95% CI): irinotecan-treated patients
From the text: The study of FIG. 5 used Quartiles of TGFB2 from mRNA expression z-scores relative to all samples (log RNA Seq V2 RSEM).

[2] = tested on: pancreatic cancer; experiment: Clinical study of overall survival, pancreatic cancer patients treated with irinotecan, by TGF-β2 expression quartiles (Example 6); assay type: in vivo, human; details: TGFB2 quartile (D) 0.61-2.64, high TGF-β2 expression
Protocol: Kaplan-Meier Plotter was used to calculate patient survival to determine the connection between improved overall survival in pancreatic cancer and reduced TGF-β2 expression when patients were also treated with irinotecan. The study of FIG. 6 used Quartiles of TGFB2 from mRNA expression z-scores relative to all samples (log RNA Seq V2 RSEM).

| Compound | Improvement in overall survival (OS) with reduced TGF-β2 expression in patients treated with the agent [1] | Synergy in combination with reduced TGF-β2 expression [1] | also measured |
| --- | --- | --- | --- |
| O=C1[O][Pt]2([NH][C@@H]3CCCC[C@H]3[NH]2)[O]C1=O [oxaliplatin] | not observed | – | – |
| Trabedersen: synthetic 18-mer phosphorothioate oligodeoxynucleotide complementary to human TGF-β2 mRNA, CGGCATGTCT ATTTTGTA (antisense dC*dG*dG*dC*dA*dT*dG*dT*dC*dT*dA*dT*dT*dT*dT*dG*dT*dA) | – | – | pH of solution: 6-8 |
| Nc1nc2c(c(=O)[nH]1)N(C=O)C(CNc1ccc(C(=O)N[C@@H](CCC(=O)O)C(=O)O)cc1)CN2 (some centres unmarked) [leucovorin] | not observed | none of oxaliplatin, leucovorin, and fluorouracil showed significant synergy | – |
| O=c1[nH]cc(F)c(=O)[nH]1 [fluorouracil] | not observed | none of oxaliplatin, leucovorin, and fluorouracil showed significant synergy | – |
| Nc1ccn([C@@H]2O[C@H](CO)[C@@H](O)C2(F)F)c(=O)n1 [gemcitabine] | not observed | – | – |
| CCc1c2c(nc3ccc(OC(=O)N4CCC(N5CCCCC5)CC4)cc13)-c1cc3c(c(=O)n1C2)COC(=O)[C@]3(O)CC [irinotecan] | showed improvement in overall survival | – | Median Months Overall (95% CI) ([1]; TGFB2 cohort (A) −1.75-0.17, low TGF-β2 expression): >>34 months; Median Months Overall (95% CI) ([1]; TGFB2 cohort (B) 0.33-2.64, high TGF-β2 expression): 23 months and 23.08 (8.22-NA) months; Median Months Overall (95% CI) [2]: 8 months and 8.22 (6.02-NA) months |

From patent publication US20250382619A1, “CANCER THERAPY WITH TGF-BETA-2 AND IRINOTECAN AGENTS” (GMP BIOTECHNOLOGY LIMITED, priority 2023, published 2025)
